Measurements taken from ChEMBL document CHEMBL2413072, “Synthesis and in vitro anticancer studies of novel C-2 arylidene congeners of lantadenes” (2013).

Key:
Type in all cases: functional
NCI-H23 [1] = test: Growth inhibition of human NCI-H23 cells by sulforhodamine B assay
OVCAR-8 = test: Growth inhibition of human OVCAR8 cells assessed as cell growth at 10^-8 M by sulforhodamine B assay; settings: read-out: Activity
SNB-75 = test: Growth inhibition of human SNB75 cells assessed as cell growth at 10^-4 M by sulforhodamine B assay; settings: read-out: Activity
SK-MEL-2 = test: Growth inhibition of human SK-MEL-2 cells assessed as cell growth at 10^-6 M by sulforhodamine B assay; settings: read-out: Activity
NCI-H522 = test: Growth inhibition of human NCI-H522 cells assessed as cell growth at 10^-4 M by sulforhodamine B assay; settings: read-out: Activity
TK-10 = test: Growth inhibition of human TK10 cells assessed as cell growth at 10^-7 M by sulforhodamine B assay; settings: read-out: Activity
SR = test: Growth inhibition of human SR cells assessed as cell growth at 10^-8 M by sulforhodamine B assay; settings: read-out: Activity
MDA-MB-468 [2] = test: Growth inhibition of human MDA-MB-468 cells assessed as cell growth at 10^-6 M by sulforhodamine B assay; settings: read-out: Activity
SF-295 = test: Growth inhibition of human SF295 cells assessed as cell growth at 10^-8 M by sulforhodamine B assay; settings: read-out: Activity
COLO 205 = test: Growth inhibition of human COLO205 cells assessed as cell growth at 10^-8 M by sulforhodamine B assay; settings: read-out: Activity
SF-268 = test: Growth inhibition of human SF268 cells by sulforhodamine B assay
786-0 = test: Growth inhibition of human 786-0 cells assessed as cell growth at 10^-4 M by sulforhodamine B assay; settings: read-out: Activity
[3] = Growth inhibition of human HCC2998 cells assessed as cell growth at 10^-7 M by sulforhodamine B assay; settings: HCC 2998, read-out: Activity
NCI-H23 [4] = test: Growth inhibition of human NCI-H23 cells assessed as cell growth at 10^-8 M by sulforhodamine B assay; settings: read-out: Activity
[5] = Growth inhibition of human HCC2998 cells assessed as cell growth at 10^-6 M by sulforhodamine B assay; settings: HCC 2998, read-out: Activity
[6] = Growth inhibition of human Hs 578T cells assessed as cell growth at 10^-6 M by sulforhodamine B assay; settings: read-out: Activity
LOX IMVI = test: Growth inhibition of human LOXIMVI cells assessed as cell growth at 10^-8 M by sulforhodamine B assay; settings: read-out: Activity
A549 = test: Growth inhibition of human A549/ATCC cells assessed as cell growth at 10^-8 M by sulforhodamine B assay; settings: read-out: Activity
MDA-MB-435 = test: Growth inhibition of human MDA-MB-435 cells assessed as cell growth at 10^-4 M by sulforhodamine B assay; settings: read-out: Activity
[7] = Growth inhibition of human NCI-ADR-RES cells by sulforhodamine B assay
MDA-MB-468 [8] = test: Growth inhibition of human MDA-MB-468 cells by sulforhodamine B assay
CAKI-1 [9] = test: Growth inhibition of human CAKI-1 cells assessed as cell growth at 10^-6 M by sulforhodamine B assay; settings: read-out: Activity
HL-60(TB) = test: Growth inhibition of human HL-60(TB) cells assessed as cell growth at 10^-6 M by sulforhodamine B assay; settings: read-out: Activity
MOLT-4 = test: Growth inhibition of human MOLT4 cells assessed as cell growth at 10^-6 M by sulforhodamine B assay; settings: read-out: Activity
ACHN [10] = test: Growth inhibition of human ACHN cells assessed as cell growth at 10^-6 M by sulforhodamine B assay; settings: read-out: Activity
KM12 = test: Growth inhibition of human KM12 cells assessed as cell growth at 10^-6 M by sulforhodamine B assay; settings: read-out: Activity
SK-OV-3 = test: Growth inhibition of human SKOV3 cells assessed as cell growth at 10^-8 M by sulforhodamine B assay; settings: read-out: Activity
ACHN [11] = test: Growth inhibition of human ACHN cells assessed as cell growth at 10^-4 M by sulforhodamine B assay; settings: read-out: Activity
HT-29 = test: Growth inhibition of human HT-29 cells assessed as cell growth at 10^-4 M by sulforhodamine B assay; settings: read-out: Activity
BT-549 = test: Growth inhibition of human BT549 cells assessed as cell growth at 10^-4 M by sulforhodamine B assay; settings: read-out: Activity
CAKI-1 [12] = test: Growth inhibition of human CAKI-1 cells assessed as cell growth at 10^-7 M by sulforhodamine B assay; settings: read-out: Activity
HCT-116 = test: Growth inhibition of human HCT116 cells assessed as cell growth at 10^-7 M by sulforhodamine B assay; settings: read-out: Activity
OVCAR-3 = test: Growth inhibition of human OVCAR3 cells assessed as cell growth at 10^-6 M by sulforhodamine B assay; settings: read-out: Activity
SF-539 [13] = test: Growth inhibition of human SF539 cells assessed as cell growth at 10^-4 M by sulforhodamine B assay; settings: read-out: Activity
HOP-92 = test: Growth inhibition of human HOP92 cells assessed as cell growth at 10^-7 M by sulforhodamine B assay; settings: read-out: Activity
IGROV-1 = test: Growth inhibition of human IGROV1 cells assessed as cell growth at 10^-6 M by sulforhodamine B assay; settings: read-out: Activity
SF-539 [14] = test: Growth inhibition of human SF539 cells assessed as cell growth at 10^-6 M by sulforhodamine B assay; settings: read-out: Activity
HCT-15 = test: Growth inhibition of human HCT15 cells by sulforhodamine B assay
NCI-H226 = test: Growth inhibition of human NCI-H226 cells assessed as cell growth at 10^-8 M by sulforhodamine B assay; settings: read-out: Activity
RXF 393 = test: Growth inhibition of human RXF393 cells assessed as cell growth at 10^-6 M by sulforhodamine B assay; settings: read-out: Activity
[15] = Growth inhibition of human NCI-ADR-RES cells assessed as cell growth at 10^-6 M by sulforhodamine B assay; settings: read-out: Activity
SNB-19 = test: Growth inhibition of human SNB19 cells by sulforhodamine B assay
[16] = read-out: LC50 (the source's name)
[17] = read-out: pLC50 (the source's name) (converted)

## C/C=C(/C)C(=O)O[C@@H]1CC(C)(C)C[C@H]2C3=CC[C@@H]4[C@@]5(C)CC[C@H](O)C(C)(C)[C@@H]5CC[C@@]4(C)[C@]3(C)CC[C@@]12C(=O)O [Reduced Lantadene A]
NCI-H23 [1]; read-out: GI50
  GI50: 2.39 µM
NCI-H23 [1]; [16]
  CC50: 91.2 µM
NCI-H23 [1]; read-out: TGI
  TGI: 5.93 µM
NCI-H23 [1]; read-out: pGI50 (converted)
  GI50: 2.4 µM
NCI-H23 [1]; [17]
  CC50: 91.2 µM
NCI-H23 [1]; read-out: pTGI (converted)
  TGI: 5.89 µM
OVCAR-8
  growth at 0.01 µM: 98%
SNB-75
  growth at 100 µM: -47%
SK-MEL-2
  growth at 1 µM: 109%
NCI-H522
  growth at 100 µM: -66%
TK-10
  growth at 0.1 µM: 108%
SR
  growth at 0.01 µM: 83%
MDA-MB-468 [2]
  growth at 1 µM: 84%
SF-295
  growth at 0.01 µM: 93%
COLO 205
  growth at 0.01 µM: 107%
SF-268; read-out: GI50
  GI50: 2.16 µM
SF-268; read-out: TGI
  TGI: 4.42 µM
SF-268; read-out: pGI50 (converted)
  GI50: 2.14 µM
SF-268; read-out: pTGI (converted)
  TGI: 4.47 µM
786-0
  growth at 100 µM: -55%
[3]
  growth at 0.1 µM: 104%
NCI-H23 [4]
  growth at 0.01 µM: 101%
[5]
  growth at 1 µM: 101%
[6]
  growth at 1 µM: 92%
LOX IMVI
  growth at 0.01 µM: 97%
A549
  growth at 0.01 µM: 93%
MDA-MB-435
  growth at 100 µM: -47%
[7]; read-out: GI50
  GI50: 2.17 µM
[7]; [16]
  CC50: > 100 µM
[7]; read-out: TGI
  TGI: 5 µM
[7]; read-out: pGI50 (converted)
  GI50: 2.19 µM
[7]; [17]
  CC50: > 100 µM
[7]; read-out: pTGI (converted)
  TGI: 5.01 µM
MDA-MB-468 [8]; read-out: GI50
  GI50: 1.68 µM
MDA-MB-468 [8]; [16]
  CC50: 7.86 µM
MDA-MB-468 [8]; read-out: TGI
  TGI: 3.64 µM
MDA-MB-468 [8]; read-out: pGI50 (converted)
  GI50: 1.7 µM
MDA-MB-468 [8]; [17]
  CC50: 7.94 µM
MDA-MB-468 [8]; read-out: pTGI (converted)
  TGI: 3.63 µM
CAKI-1 [9]
  growth at 1 µM: 85%
HL-60(TB)
  growth at 1 µM: 99%
MOLT-4
  growth at 1 µM: 89%
ACHN [10]
  growth at 1 µM: 87%
KM12
  growth at 1 µM: 69%
SK-OV-3
  growth at 0.01 µM: 100%
ACHN [11]
  growth at 100 µM: -69%
HT-29
  growth at 100 µM: -64%
BT-549
  growth at 100 µM: -90%
CAKI-1 [12]
  growth at 0.1 µM: 96%
HCT-116
  growth at 0.1 µM: 95%
OVCAR-3
  growth at 1 µM: 104%
SF-539 [13]
  growth at 100 µM: -68%
HOP-92
  growth at 0.1 µM: 76%
IGROV-1
  growth at 1 µM: 111%
SF-539 [14]
  growth at 1 µM: 101%
HCT-15; read-out: GI50
  GI50: 2.58 µM
HCT-15; read-out: LC50
  LC50 (50% lethal concentration): 62.6 µM
HCT-15; read-out: TGI
  TGI: 11.5 µM
HCT-15; read-out: pGI50 (converted)
  GI50: 2.57 µM
HCT-15; read-out: pLC50 (converted)
  LC50 (50% lethal concentration): 63.1 µM
HCT-15; read-out: pTGI (converted)
  TGI: 11.5 µM
NCI-H226
  growth at 0.01 µM: 91%
RXF 393
  growth at 1 µM: 87%
[15]
  growth at 1 µM: 96%
SNB-19; read-out: GI50
  GI50: 1.65 µM
SNB-19; read-out: TGI
  TGI: 3.37 µM
SNB-19; read-out: pGI50 (converted)
  GI50: 1.66 µM
SNB-19; read-out: pTGI (converted)
  TGI: 3.39 µM
